Tested on: myeloid leukemic progenitor cells [CFU-GM-(L)] from AML patients
Assay: Purging of fresh leukemic cells from AML patients, CFU-GM-(L) colony inhibition
Format: cell-based
Details: Homo sapiens, fresh leukemic cells from 4 patients with AML, 4-HC 100 uM/L, VP-16 5 ug/ml where combined
Method: We report the results of a preclinical study comparing four different purging protocols using promyelocytic human cell line HL-60 and myeloid leukemic progenitor cells [CFU-GM-(L)] from AML patients assayed in semisolid culture. We studied the antileukemic effect of 1] complement-dependent lysis by 2 different MoAbs (M195 and F23; 40 ug/ml), reactive with distinct antigens found on early myeloid cells and monocytes, used alone and in combinations; 2] 4-Hydroperoxycyclophosphamide (4-HC) (100 uM/L) alone or 3] combined with VP-16 (5 ug/ml) and 4] a cocktail of 1-3 protocols as above (ie combined immunochemotherapy). Four logs of HL-60 tumor cell elimination was observed after 1 hour incubation with both MoAbs plus 4-HC+VP-16 while the single treatment (ie immunotherapy or chemotherapy) provided 1.5 and 3.0 logs of colony forming inhibition respectively.
The combined treatment of MoAbs and 4-HC+VP-16 produced a 3-log reduction of CFU-GM-(L) colony formation. By comparison the mean recovery of committed normal bone marrow progenitors after incubation with MoAbs and complement was 19.5% for CFU-GM, 32.3% for BFU-E and 16.7% for CFU-MIX.

SMILES: O=P1(N(CCCl)CCCl)NC(OO)CCO1 (stereo not shown) [4-HC, 4-Hydroperoxycyclophosphamide]
- inhibition at 100 µM: 95.5%
